Laboratory results from patent US7943551B2, “3-cyclopropyl-4-(3-thiobenzoyl) pyrazoles and their use as herbicides” (Bayer Cropscience AG, priority 2007, dated 2011).

What was measured:
Format in all cases: in vivo
Viola tricolor [1] = assay: Post-emergence herbicidal action; details: 80 g of a.i./ha, read-out: Herbicidal activity in % against VIOTR
Procedure: (§1) Seeds of mono- and dicotyledonous harmful plants are placed in sandy loam in cardboard pots, covered with soil and grown in the greenhouse under good growth conditions. Two to three weeks after sowing, the test plants are treated at the three-leaf stage. The compounds according to the invention, which are formulated as wettable powders or as emulsion concentrates, are sprayed at an application rate of 600 to 800 l of water/ha (converted) in a dosage of 80 grams per hectare onto the surface of the green plant parts. The visual scoring of the damage to the harmful plants is carried out 3-4 weeks after the treatment. Here, the compounds of Nos. 1-39, 1-40, 1-1382 and 1-2091 show an activity of at least 90% against Echinochloa crus galli. The compounds of Nos. 1-3, 1-44 and 1-2091 shown an activity of at least 90% against Abutilon theophrasti. The compounds of Nos. 1-39, 1-40 and 1-1382 show an activity of at least 90% against Veronica persica. The compounds of Nos. 1-3, 1-38, 1-39, 1-1406 and 1-1407 show an activity of at least 90% against Stellaria media.
(§2) The comparative tests of Tables 1 to 24 below show the superiority of the compounds according to the invention over the compounds known from the prior art.
(§3) • ABUTH Abutilon theophrasti ALOMY Alopecurus myosuroides • AMARE Amaranthus retroflexus AVEFA Avena fatua • CHEAL Chenopodium album ECHCG Echinochloa crus galli • GALAP Galium aparine LOLMU Lolium multiflorum • MATIN Matricaria inodora PHBPU Pharbitis purpureum • POLCO Fallopia convolvulus STEME Stellaria media • VERPE Veronica persica VIOTR Viola tricolor • XANST Xanthium strumarium Crop Plants • GLXMA Glycine max (soybeans) TRZAS Triticum aestivum (wheat) • ZEAMX Zea mays (corn)

Fallopia convolvulus [2] = assay: Post-emergence herbicidal action; details: 80 g of a.i./ha
Procedure: as §1, §2, §3

Pharbitis purpureum [3] = assay: Post-emergence herbicidal action; details: 80 g of a.i./ha
Procedure: as §1, §2, §3

Fallopia convolvulus [4] = assay: Pre-emergence herbicidal action; details: 320 g of a.i./ha
From the text: (§4) Seeds or rhizome pieces of mono- and dicotyledonous harmful plants are placed in sandy loam in pots of a diameter of 9 to 13 cm and covered with soil. The herbicides, formulated as emulsifiable concentrates or dusts, are applied to the surface of the covering soil in the form of aqueous dispersions or suspensions or emulsions at an application rate of 300 to 800 l of water/ha (converted), at a dosage of 320 grams per hectare. For further cultivation of the plants, the pots are then kept in a greenhouse under optimum conditions. The visual scoring of the damage to the harmful plants is carried out 3-4 weeks after the treatment. Here, the compounds of Nos. 1-3, 1-15, 1-44 and 1-1407 show an activity of at least 90% against Echinochloa crus galli. The compounds of Nos. 1-15, 1-45, 1-1407 and 1-1419 show an activity of at least 90% against Abutilon theophrasti. The compounds of Nos. 1-3, 1-45, 1-1406 and 1-1418 show an activity of at least 90% against Amaranthus retroflexus. The compounds of Nos. 1-44, 1-1406, 1-1407 and 1-1419 show an activity of at least 90% against Stellaria media.
as §2, §3

Pharbitis purpureum [5] = assay: Pre-emergence herbicidal action; details: 320 g of a.i./ha
From the text: as §4, §2, §3

Xanthium strumarium = assay: Pre-emergence herbicidal action; details: 320 g of a.i./ha
From the text: as §4, §2, §3

Stellaria media = assay: Pre-emergence herbicidal action; details: 80 g of a.i./ha
From the text: as §4, with “at a dosage of 320 grams per hectare.” left out
as §2, §3

Veronica persica = assay: Pre-emergence herbicidal action; details: 80 g of a.i./ha
From the text: as §4, with “at a dosage of 320 grams per hectare.” left out
as §2, §3

Matricaria inodora = assay: Pre-emergence herbicidal action; details: Tripleurospermum inodorum, read-out: Herbicidal activity in % against MATIN; for pest or weed control at 80 g/ha: 80 g of a.i./ha; for pest or weed control at 320 g/ha: 320 g of a.i./ha
From the text: as §4, §2, §3

Viola tricolor [6] = assay: Pre-emergence herbicidal action; details: 320 g of a.i./ha
From the text: as §4, with “at a dosage of 320 grams per hectare.” left out
as §2, §3

Amaranthus retroflexus = assay: Pre-emergence herbicidal action; details: 320 g of a.i./ha, visual scoring 3-4 weeks after treatment
From the text: as §4, with “at a dosage of 320 grams per hectare.” left out
as §2, §3

Abutilon theophrasti = assay: Pre-emergence herbicidal action; details: 320 g of a.i./ha, visual scoring 3-4 weeks after treatment
From the text: as §4, §2, §3

Compound	Herbicidal activity in % against POLCO (Fallopia convolvulus [4])	Herbicidal activity in % against PHBPU (Pharbitis purpureum [5])	Herbicidal activity in % against XANST (Xanthium strumarium)	Herbicidal activity in % against VIOTR (Viola tricolor [6])	Herbicidal activity in % against AMARE (Amaranthus retroflexus)	pest or weed control at 320 g/ha (Matricaria inodora)	Herbicidal activity in % against ABUTH (Abutilon theophrasti)	also measured
CCOCCSc1c(S(C)(=O)=O)ccc(C(=O)c2c(C3CC3)nn(C)c2O)c1C								pest or weed control at 80 g/ha (Viola tricolor [1]): 80%; Herbicidal activity in % against POLCO (Fallopia convolvulus [2]): 70%; Herbicidal activity in % against PHBPU (Pharbitis purpureum [3]): 60%
COCCS(=O)(=O)c1c(S(C)(=O)=O)ccc(C(=O)c2c(C3CC3)nn(C)c2O)c1C [drawing 13]	60%	60%	70%					
CCS(=O)(=O)c1c(S(C)(=O)=O)ccc(C(=O)c2c(C3CC3)nn(C)c2O)c1C [drawing 14, reference compound]	20%	20%	0%					
Cc1c(C(=O)c2c(C3CC3)nn(C)c2O)ccc(S(C)(=O)=O)c1S(=O)(=O)CC1CC1 [drawing 15]	50%	50%	60%					
COCCSc1c(Cl)ccc(C(=O)c2c(C3CC3)nn(C)c2O)c1C [drawing 17]								Herbicidal activity in % against STEME (Stellaria media): 90%; Herbicidal activity in % against VERPE (Veronica persica): 90%; pest or weed control at 80 g/ha (Matricaria inodora): 60%
CCSc1c(Cl)ccc(C(=O)c2c(C3CC3)nn(C)c2O)c1C [drawing 18, reference compound]								Herbicidal activity in % against STEME (Stellaria media): 60%; Herbicidal activity in % against VERPE (Veronica persica): 30%; pest or weed control at 80 g/ha (Matricaria inodora): 30%
COCCSc1c(S(C)(=O)=O)ccc(C(=O)c2c(C3CC3)nn(C)c2O)c1Cl [drawing 23]	50%			100%	100%	60%	100%	
CCSc1c(S(C)(=O)=O)ccc(C(=O)c2c(C3CC3)nn(C)c2O)c1Cl [drawing 24]	0%			50%	90%	0%	70%	
CSc1c(S(C)(=O)=O)ccc(C(=O)c2c(C3CC3)nn(C)c2O)c1Cl [drawing 26]	40%			50%	90%	0%	60%	
